Experimental data taken from US11630110B2, “Methods to identify protein interaction” (AGENCY FOR SCIENCE, TECHNOLOGY AND RESEARCH, priority 2017, dated 2023).

Experiments:
[1] = system: K562 cells; experiment: DNA content analysis by FACS of propidium iodide staining; type: cell-based; settings: 20 μM methotrexate, 48 hours, vs DMSO, FIG. 34
[2] = system: NF-kβ signaling pathway; experiment: Western blotting of NFκB signalling pathway members; type: cell-based; settings: K562 cells, 20 μM methotrexate 48 hours, presence and absence of TNF; FIG. 16A
Procedure: Cells were washed with DPBS (without calcium and magnesium) once, then lysed in TOTEX Buffer (20 mM Hepes at pH 7.9, 0.35M NaCl, 20% Glycerol, 1% NP-40, 1 mM MgCl2, 0.1 mM EGTA) including 50 mM NaF, 0.3 mM […] and protease inhibitor cocktail. Supernatant including proteins was collected, followed by centrifugation at full speed for 20 minutes. Western blotting was performed by following standard procedures using the following antibodies: Rabbit Anti-phospho-IKKα/β (S180/181) (1:1,000; Bioworld Technology, BS5082), Rabbit Anti-phospho-IKBα (S32) (1:1,000; Cell Signalling Technology, 2859), Rabbit Anti-IKBα (1:1,000; Santa Cruz Biotechnology, sc-371), Rabbit Anti-phospho-p65 ([…]) (1:1,000; Cell Signalling Technology, 3031), Mouse Anti-HSP90 (1:1,000; BD, 610419), Goat Anti-Rabbit IgG-HRP (1:5,000; Santa Cruz Biotechnology, sc-2054) and Goat Anti-Mouse IgG-HRP (1:5,000; Santa Cruz Biotechnology, sc-2005).

CN(Cc1cnc2nc(N)nc(N)c2n1)c1ccc(C(=O)N[C@@H](CCC(=O)O)C(=O)O)cc1 [methotrexate]
cell cycle state of K562 cells [1]: arrested in the S phase
activation of the NF-kβ signaling pathway [2]: suppressing activation
phosphorylation of IKKα/β complex, IκBα and p65 [2]: inhibiting phosphorylation
